Test [1] in a line: Inhibition of LIN28A (16 to 187 residues) (unknown origin) expressed in Escherichia coli BL21(DE3)/mouse let-7 interaction incubated for 15 mins in presence of Cy-3-fluorophore labeled RNA by electrophoretic mobility shift assay. In general terms: A gel shift assay detects complexes by their altered migration in electrophoresis.
The nature of test [2]: Inhibition of LIN28A (16 to 187 residues) (unknown origin) expressed in Escherichia coli BL21(DE3)/mouse let-7 interaction at 75 uM incubated for 15 mins in presence of Cy-3-fluorophore labeled RNA by electrophoretic mobility shift assay relative to control.
For test [3], the target named is T1, Protein lin-28 homolog A (Homo sapiens) (UniProt Q9H9Z2).
T1 sequence (whole entry): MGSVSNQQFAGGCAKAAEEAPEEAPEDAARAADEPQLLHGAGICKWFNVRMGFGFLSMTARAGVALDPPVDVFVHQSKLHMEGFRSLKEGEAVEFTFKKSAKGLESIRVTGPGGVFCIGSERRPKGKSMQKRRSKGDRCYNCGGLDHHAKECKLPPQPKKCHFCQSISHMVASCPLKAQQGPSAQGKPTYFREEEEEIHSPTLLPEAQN
Description: Inhibition of recombinant LIN28A CSD (16 to 126 residues) (unknown origin) assessed as increase in thermal stability at 75 uM incubated for 45 mins by nano differential scanning fluorimetry analysis. For orientation: DSF heats the sample and reads unfolding from a dye or from intrinsic fluorescence.

Test [4] is described as follows: Inhibition of let-7d miRNA biogenesis in human JAR cells assessed as fold increase in mature […] at 5 to 20 uM incubated for 24 hrs by qPCR analysis. The format is functional. The following applies: dose 5-20 µM. In general terms: Real-time PCR tracks product formation cycle by cycle.
Test [5] concerns let-7i miRNA. Description: Inhibition of let-7i miRNA biogenesis in human JAR cells incubated for 24 hrs by qPCR analysis. The following applies: dose 5-20 µM. The format is functional, cell-based.
Test [6] deals with T1, Protein lin-28 homolog A (Homo sapiens). Description: Binding affinity to recombinant LIN28A CSD (16 to 126 residues) (unknown origin) by biolayer interferometry analysis. The following applies: dose 1.56-100 µM.
The subject of a further test is JAR. Description: Inhibition of let-7d miRNA biogenesis in human JAR cells incubated for 24 hrs by qPCR analysis. The format is functional, cell-based. Particulars: dose 5-20 µM.
For test [7], the system named is let-7i miRNA. Put plainly: Inhibition of let-7i miRNA biogenesis in human JAR cells assessed as fold increase in mature […] at 5 to 20 uM incubated for 24 hrs by qPCR analysis. The format is functional, cell-based. Particulars: dose 5-20 µM.
The species entered for another test is Homo sapiens. Description: Inhibition of LIN28B (24 to 111 residues) (unknown origin) expressed in Escherichia coli BL21(DE3)/mouse let-7 interaction incubated for 15 mins in presence of Cy-3-fluorophore labeled RNA by electrophoretic mobility shift assay. Particulars: dose 2.3-150 µM.

We go through 28 compounds from ChEMBL document CHEMBL5390296, “N-Biphenyl Pyrrolinones and Dibenzofurans as RNA-Binding Protein LIN28 Inhibitors Disrupting the LIN28-Let-7 Interaction” (ACS Med Chem Lett, 2023).

Calls of active or inactive are those of the source. The rule behind the calls is not given here.

For `O=C(C1=C(O)C(=O)N(c2cccc(-c3ccccc3)c2)[C@@H]1c1ccc([N+](=O)[O-])cc1)c1ccccc1`, in test [1], the IC50 (in general, the concentration at which inhibition is half-maximal) stood at 37 µM. On to `O=C(C1=C(O)C(=O)N(c2cccc([N+](=O)[O-])c2)[C@@H]1c1ccc([N+](=O)[O-])cc1)c1ccccc1`, for which the inhibition (commonly the relative decrease from the control value, in per cent) in test [2] was “inactive”. The same measure, in the same setting: then `O=C(O)c1cc(N2C(=O)c3nn(Cc4ccccc4)c(-c4ccccc4)c3C2c2ccc([N+](=O)[O-])cc2)ccc1O` (centres undefined), with “inactive”; and `O=C1C(=O)C2(CCCCC2=O)C(c2ccccc2)N1c1ccccc1` (centres undefined), with “inactive”.

For the compound `NC1=C(C(=O)c2ccccc2)[C@@H](c2ccc([N+](=O)[O-])cc2)N(c2ccc(O)c(C(=O)O)c2)C1=O`, in [2], the inhibition result was “inactive”. On the same count and under the same terms, then `O=C(C1=C(O)C(=O)N(c2cccc([N+](=O)[O-])c2)[C@H]1c1ccc([N+](=O)[O-])cc1)c1ccccc1`, with “inactive”. On the same count and under the same terms, then `O=C(O)c1cc(N2C(=O)C(O)=C(Cc3ccccc3)[C@H]2c2ccc([N+](=O)[O-])cc2)ccc1O`, with “inactive”. With `O=C(C1=C(O)C(=O)N(CCCc2ccccc2)C1c1ccc([N+](=O)[O-])cc1)c1ccccc1` (centres undefined), in test [1], the half-maximal inhibitory concentration (IC50) is 5 µM. Take `O=C1C(=O)C2(CCCC2=O)C(c2ccc([N+](=O)[O-])cc2)N1c1ccc2c(c1)oc1ccccc12` (centres undefined): the inhibition result in [2] is “inactive”.

Turning to `O=C1C(=O)C2(CCCCC2=O)C(c2ccc([N+](=O)[O-])cc2)N1c1cccc(-c2ccccc2)c1` (centres undefined), the inhibition result in [2] was “inactive”. On the same count and under the same terms, then `O=C(C1=C(O)C(=O)N(c2ccc(O)c(C(=O)O)c2)C1c1ccc([N+](=O)[O-])cc1)c1ccccn1` (centres undefined), with 106%.

For the compound `O=C1C(=O)C2(CCCC2=O)C(c2ccc([N+](=O)[O-])cc2)N1c1ccc2oc3ccccc3c2c1` (centres undefined), the inhibition result in test [2] was “inactive”. Consider `Cn1nnc2cc(C3C(C(=O)c4ccccc4)=C(O)C(=O)N3c3ccc(O)c(C(=O)O)c3)ccc21` (centres undefined), for which the shift in melting temperature (ΔTm) (commonly the change in melting temperature against a reference sample) in test [3] was below 0.5 °C. Take `O=C1C(=O)C2(CCCC2=O)C(c2ccc([N+](=O)[O-])cc2)N1c1cccc(-c2ccccc2)c1` (centres undefined): the inhibition entry in [2] is “inactive”. The same measure, in the same setting: then `N=C1CC=CC=C1C1=C(N)C(=O)N(c2ccc(O)c(C(=O)O)c2)[C@@H]1c1ccc([N+](=O)[O-])cc1`, with “inactive”; and `O=C(C1=C(O)C(=O)N(c2cccc(-c3ccccc3)c2)C1c1ccc([N+](=O)[O-])cc1)C1CC1` (centres undefined), with “inactive”; and `O=C(C1=C(O)C(=O)N(c2cccc(-c3ccccc3)c2)C1c1ccc([N+](=O)[O-])cc1)c1ccc(F)cc1O` (centres undefined), with “inactive”. Still for that read-out and setting: then `O=C1C(=O)C2(CCCC2=O)C(c2ccccc2)N1c1ccccc1` (centres undefined), with “inactive”; and `O=C(O)c1cc(N2C(=O)C(O)=C(Cc3ccccc3)[C@@H]2c2ccc([N+](=O)[O-])cc2)ccc1O`, with “inactive”.

Take `O=C(O)c1cc(N2C(=O)C(O)=C(c3nccs3)C2c2ccc([N+](=O)[O-])cc2)ccc1O` (centres undefined): the inhibition in test [2] stood at 64.8%. Consider `O=C(C1=C(O)C(=O)N(c2ccc(O)c(C(=O)O)c2)[C@@H]1c1ccc([N+](=O)[O-])cc1)c1ccc(Cl)cc1`, for which the inhibition result in test [2] was “inactive”. As to `Nc1ccc(C2C(C(=O)c3ccccc3)=C(O)C(=O)N2c2ccc(O)c(C(=O)O)c2)cc1` (centres undefined), the IC50 in [1] turned out to be 5 µM.

In the case of `O=C(C1=C(O)C(=O)N(c2cccc(-c3ccccc3)c2)C1c1ccc([N+](=O)[O-])cc1)c1ccccc1` (racemic), the “fold change (FC)” value (in [4]; in the test on let-7i miRNA [7]) was 2 each time. Also, the Activity result (in the test with let-7i miRNA [5]; in test [6]; in the test with JAR) was “Dose-Dependent Effect” in each case. Also, the inhibition was 84% in test [2] and “Dose-Dependent Effect” in the test listed under Homo sapiens. On to `CS(=O)(=O)c1ccc(C(=O)C2=C(O)C(=O)N(c3cccc(-c4ccccc4)c3)C2c2ccc([N+](=O)[O-])cc2)cc1` (centres undefined), for which the inhibition result in [2] was “inactive”. With `Cc1ccc(C(=O)C2=C(O)C(=O)N(c3ccc(O)c(C(=O)O)c3)C2c2ccc([N+](=O)[O-])cc2)cc1` (centres undefined), in test [2], the inhibition came to 65.6%. Same read-out and setting: then `O=C(O)c1cc(N2C(=O)c3c(c(-c4ccccc4)nn3Cc3ccccc3)C2c2ccc([N+](=O)[O-])cc2)ccc1O` (centres undefined), with “inactive”; and `O=C(C1=C(O)C(=O)N(c2ccc(O)c(C(=O)O)c2)[C@H]1c1ccc([N+](=O)[O-])cc1)c1ccc(Cl)cc1`, with “inactive”; and `COc1ccc(C(=O)C2=C(O)C(=O)N(c3cccc(-c4ccccc4)c3)C2c2ccc([N+](=O)[O-])cc2)cc1OC` (centres undefined), with “inactive”.
